# According to patent US20230125667A1, “NOVEL TDZD ANALOGS AS AGENTS THAT DELAY, PREVENT, OR REVERSE AGE-ASSOCIATED DISEASES AND AS ANTI-CANCER AND ANTILEUKEMIC AGENTS” (United States Government as represented by the Department …, priority 2020, published 2023):
# What was measured:
# M14 = experiment: NCI-60 growth inhibition: M14 (Melanoma); assay type: cell-based, human
# COLO 205 = experiment: NCI-60 growth inhibition: COLO 205 (Colon Cancer); assay type: cell-based, human
# PC-3 = experiment: NCI-60 growth inhibition: PC-3 (Prostate Cancer); assay type: cell-based, human
# SF-539 = experiment: NCI-60 growth inhibition: SF-539 (CNS Cancer); assay type: cell-based, human
# SF-268 = experiment: NCI-60 growth inhibition: SF-268 (CNS Cancer); assay type: cell-based, human
# T-47D = experiment: NCI-60 growth inhibition: T-47D (Breast Cancer); assay type: cell-based, human
# DU-145 = experiment: NCI-60 growth inhibition: DU-145 (Prostate Cancer); assay type: cell-based, human
# SW-620 = experiment: NCI-60 growth inhibition: SW-620 (Colon Cancer); assay type: cell-based, human
# NCI-H522 = experiment: NCI-60 growth inhibition: NCI-H522 (Non-Small-Cell Lung Cancer)
# [1] = tested on: MV4-11 cell line (myelomonocytic leukemia); settings: MV4-11 cells; for LD50, 7AAD (μM) 24 h / LD50, Alamar blue (μM) 24 h / LD50, YOPRO (μM) 24 h: MMB-TDZD analogs (Table 2)
# MDA-MB-435 = experiment: NCI-60 growth inhibition: MDA-MB-435 (Melanoma); assay type: cell-based, human
# BT-549 = experiment: NCI-60 growth inhibition: BT-549 (Breast Cancer); assay type: cell-based, human
# HL-60(TB) = experiment: NCI-60 growth inhibition: HL-60(TB) (Leukemia); assay type: cell-based, human; settings: HL-60(TB) (Leukemia); read-out: GI50
# ACHN = experiment: NCI-60 growth inhibition: ACHN (Renal Cancer); assay type: cell-based, human
# 786-0 = experiment: NCI-60 growth inhibition: 786-0 (Renal Cancer); assay type: cell-based, human
# HOP-92 = experiment: NCI-60 growth inhibition: HOP-92 (Non-Small-Cell Lung Cancer); assay type: cell-based, human
# SNB-19 = experiment: NCI-60 growth inhibition: SNB-19 (CNS Cancer); assay type: cell-based, human
# SK-MEL-5 = experiment: NCI-60 growth inhibition: SK-MEL-5 (Melanoma); assay type: cell-based, human
# SK-MEL-28 = experiment: NCI-60 growth inhibition: SK-MEL-28 (Melanoma); assay type: cell-based, human
# SN12C = experiment: NCI-60 growth inhibition: SN12C (Renal Cancer); assay type: cell-based, human
# UACC-257 = experiment: NCI-60 growth inhibition: UACC-257 (Melanoma); assay type: cell-based, human
# MDA-MB-231/ATCC = experiment: NCI-60 growth inhibition: MDA-MB-231/ATCC (Breast Cancer); assay type: cell-based, human
# RPMI-8226 = experiment: NCI-60 growth inhibition: RPMI-8226 (Leukemia); assay type: cell-based, human
# HS 578T = experiment: NCI-60 growth inhibition: HS 578T (Breast Cancer); assay type: cell-based, human
# A498 = experiment: NCI-60 growth inhibition: A498 (Renal Cancer); assay type: cell-based, human
# NCI-H460 = experiment: NCI-60 growth inhibition: NCI-H460 (Non-Small-Cell Lung Cancer); assay type: cell-based, human
# MOLT-4 = experiment: NCI-60 growth inhibition: MOLT-4 (Leukemia); assay type: cell-based, human
# OVCAR-4 = experiment: NCI-60 growth inhibition: OVCAR-4 (Ovarian Cancer); assay type: cell-based, human
# SR = experiment: NCI-60 growth inhibition: SR (Leukemia); assay type: cell-based, human
# UACC-62 = experiment: NCI-60 growth inhibition: UACC-62 (Melanoma); assay type: cell-based, human
# U251 = experiment: NCI-60 growth inhibition: U251 (CNS Cancer); assay type: cell-based, human
# OVCAR-8 = experiment: NCI-60 growth inhibition: OVCAR-8 (Ovarian Cancer); assay type: cell-based, human
# OVCAR-5 = experiment: NCI-60 growth inhibition: OVCAR-5 (Ovarian Cancer); assay type: cell-based, human
# TK-10 = experiment: NCI-60 growth inhibition: TK-10 (Renal Cancer); assay type: cell-based, human
# LOX IMVI = experiment: NCI-60 growth inhibition: LOX IMVI (Melanoma); assay type: cell-based, human
# CAKI-1 = experiment: NCI-60 growth inhibition: CAKI-1 (Renal Cancer); assay type: cell-based, human
# OVCAR-3 = experiment: NCI-60 growth inhibition: OVCAR-3 (Ovarian Cancer); assay type: cell-based, human
# MDA-MB-468 = experiment: NCI-60 growth inhibition: MDA-MB-468 (Breast Cancer); assay type: cell-based, human; settings: MDA-MB-468 (Breast Cancer); read-out: GI50
# CCRF-CEM = experiment: NCI-60 growth inhibition: CCRF-CEM (Leukemia); assay type: cell-based, human
# HT29 = experiment: NCI-60 growth inhibition: HT29 (Colon Cancer); assay type: cell-based, human
# EKVX = experiment: NCI-60 growth inhibition: EKVX (Non-Small-Cell Lung Cancer); assay type: cell-based, human
# MALME-3M = experiment: NCI-60 growth inhibition: MALME-3M (Melanoma); assay type: cell-based, human
# HCT-116 = experiment: NCI-60 growth inhibition: HCT-116 (Colon Cancer)
# SNB-75 = experiment: NCI-60 growth inhibition: SNB-75 (CNS Cancer); assay type: cell-based, human
# MCF7 = experiment: NCI-60 growth inhibition: MCF7 (Breast Cancer); assay type: cell-based, human
# NCI-H23 = experiment: NCI-60 growth inhibition: NCI-H23 (Non-Small-Cell Lung Cancer); assay type: cell-based, human
# SK-MEL-2 = experiment: NCI-60 growth inhibition: SK-MEL-2 (Melanoma); assay type: cell-based, human
# HCT-15 = experiment: NCI-60 growth inhibition: HCT-15 (Colon Cancer); assay type: cell-based, human
# IGROV1 = experiment: NCI-60 growth inhibition: IGROV1 (Ovarian Cancer); assay type: cell-based, human
# UO-31 = experiment: NCI-60 growth inhibition: UO-31 (Renal Cancer); assay type: cell-based, human
# K-562 = experiment: NCI-60 growth inhibition: K-562 (Leukemia); assay type: cell-based, human
# RXF 393 = experiment: NCI-60 growth inhibition: RXF 393 (Renal Cancer); assay type: cell-based, human
# [2] = tested on: human leukemia cell lines; experiment: NCI-60 growth inhibition, leukemia cell lines; settings: NCI panel
# [3] = NCI-H522 (Non-Small-Cell Lung Cancer)
smiles,measurement,setting,value
C=C1C(=O)O[C@H]2[C@H]1CC/C(COC(=O)NCc1ccc(Cn3c(=O)sn(CCCCC)c3=O)cc1)=C\CC[C@@]1(C)O[C@@H]21 [BSK-218],GI50,M14,1890 nM
same,GI50,COLO 205,1780 nM
same,GI50,PC-3,1920 nM
same,GI50,SF-539,1640 nM
same,GI50,SF-268,1880 nM
same,GI50,T-47D,1750 nM
same,GI50,DU-145,1680 nM
same,GI50,SW-620,1310 nM
same,GI50,NCI-H522; [3],1590 nM
same,"LD50, 7AAD (μM) 24 h",[1],1.3 µM
same,"LD50, Alamar blue (μM) 24 h",[1],0.8 µM
same,"LD50, YOPRO (μM) 24 h",[1],1.07 µM
same,LD50,[1]; values in text,760 nM
same,GI50,MDA-MB-435,1710 nM
same,GI50,BT-549,1910 nM
same,GI50,HL-60(TB),1100 nM
same,GI50,ACHN,1680 nM
same,GI50,786-0,1980 nM
same,GI50,HOP-92,1380 nM
same,GI50,SNB-19,5060 nM
same,GI50,SK-MEL-5,3920 nM
same,GI50,SK-MEL-28,1850 nM
same,GI50,SN12C,1710 nM
same,GI50,UACC-257,1570 nM
same,GI50,MDA-MB-231/ATCC,1720 nM
same,GI50,RPMI-8226,1120 nM
same,GI50,HS 578T,2790 nM
same,GI50,A498,2910 nM
same,GI50,NCI-H460,3420 nM
same,GI50,MOLT-4,5900 nM
same,GI50,OVCAR-4,1620 nM
same,GI50,SR,2990 nM
same,GI50,UACC-62,1590 nM
same,GI50,U251,2200 nM
same,GI50,OVCAR-8,2260 nM
same,GI50,OVCAR-5,2010 nM
same,GI50,TK-10,1960 nM
same,GI50,LOX IMVI,1590 nM
same,GI50,CAKI-1,2840 nM
same,GI50,OVCAR-3,1410 nM
same,GI50,MDA-MB-468,1190 nM
same,GI50,CCRF-CEM,360 nM
same,GI50,HT29,2090 nM
same,GI50,EKVX,1850 nM
same,GI50,MALME-3M,1610 nM
same,GI50,HCT-116; HCT-116 (Colon Cancer),1730 nM
same,GI50,SNB-75,1590 nM
same,GI50,MCF7,1790 nM
same,GI50,NCI-H23,1940 nM
same,GI50,SK-MEL-2,2420 nM
same,GI50,HCT-15,1660 nM
same,GI50,IGROV1,2110 nM
same,GI50,UO-31,1460 nM
C=C1C(=O)O[C@H]2[C@H]1CC/C(COC(=O)NCc1ccc(Cn3c(=O)sn(CCCC#N)c3=O)cc1)=C\CC[C@@]1(C)O[C@@H]21 [BSK-226],GI50,M14,1930 nM
same,GI50,COLO 205,2040 nM
same,GI50,PC-3,2130 nM
same,GI50,SF-539,1730 nM
same,GI50,SF-268,2630 nM
same,GI50,T-47D,1970 nM
same,GI50,DU-145,1640 nM
same,GI50,SW-620,1230 nM
same,GI50,NCI-H522; [3],530 nM
same,GI50,NCI-H522; NCI-H522 (non-small-cell lung cancer),530 nM
same,"LD50, 7AAD (μM) 24 h",[1],0.75 µM
same,"LD50, Alamar blue (μM) 24 h",[1],0.45 µM
same,"LD50, YOPRO (μM) 24 h",[1],0.37 µM
same,GI50,MDA-MB-435,1800 nM
same,GI50,BT-549,1480 nM
same,GI50,HL-60(TB),960 nM
same,GI50,ACHN,1660 nM
same,GI50,786-0,1480 nM
same,GI50,K-562,720 nM
same,GI50,HOP-92,1100 nM
same,GI50,SNB-19,4840 nM
same,GI50,SK-MEL-5,3720 nM
same,GI50,SK-MEL-28,1690 nM
same,GI50,SN12C,1360 nM
same,GI50,UACC-257,1610 nM
same,GI50,MDA-MB-231/ATCC,1720 nM
same,GI50,RPMI-8226,760 nM
same,GI50,HS 578T,5640 nM
same,GI50,A498,2830 nM
same,GI50,NCI-H460,11300 nM
same,GI50,MOLT-4,1500 nM
same,GI50,OVCAR-4,1670 nM
same,GI50,UACC-62,1440 nM
same,GI50,U251,5050 nM
same,GI50,OVCAR-8,2320 nM
same,GI50,OVCAR-5,2640 nM
same,GI50,TK-10,1750 nM
same,GI50,LOX IMVI,1580 nM
same,GI50,CAKI-1,2050 nM
same,GI50,OVCAR-3,770 nM
same,GI50,MDA-MB-468,1530 nM
same,GI50,CCRF-CEM,570 nM
same,GI50,HT29,2460 nM
same,GI50,EKVX,2820 nM
same,GI50,MALME-3M,1340 nM
same,GI50,HCT-116; HCT-116 (Colon Cancer),560 nM
same,GI50,HCT-116; HCT-116 (colon cancer),560 nM
same,GI50,RXF 393,1350 nM
same,potency against leukemia cell lines (GI50 <1.0),[2],comparably potent against 4 out of 5 leukemia cell lines
same,GI50,SNB-75,2030 nM
same,GI50,MCF7,1710 nM
same,GI50,NCI-H23,2330 nM
same,GI50,SK-MEL-2,4830 nM
same,GI50,HCT-15,1940 nM
same,GI50,IGROV1,1780 nM
same,GI50,UO-31,1400 nM
